EC50 data for eight compounds are collected here from ChEMBL document CHEMBL1146503, “Effects of natural flavones and flavonols on the kinase activity of Cdk5” (J Nat Prod, 2004).

pEC50: −log10 of the molar value.

Cyclin-dependent kinase 5, sequence (Q03114 whole entry): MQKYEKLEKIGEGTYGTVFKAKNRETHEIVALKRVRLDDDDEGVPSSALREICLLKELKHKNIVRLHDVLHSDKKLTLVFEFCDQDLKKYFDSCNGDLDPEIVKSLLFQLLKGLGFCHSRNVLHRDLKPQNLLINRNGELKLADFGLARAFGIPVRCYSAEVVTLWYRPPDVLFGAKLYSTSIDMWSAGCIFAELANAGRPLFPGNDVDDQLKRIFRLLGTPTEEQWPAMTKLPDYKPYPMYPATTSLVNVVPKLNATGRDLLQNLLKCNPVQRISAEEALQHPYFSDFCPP

The assay concerns the target Cyclin-dependent kinase 5 (Rattus norvegicus, UniProt Q03114). Nature of the assay: Inhibition of rat fetal brain CDK5 assessed as phosphorylated histone H1 levels by immuno-precipitation. It is filed as tissue-based.
For the compound `COc1cc2oc(-c3ccccc3)cc(=O)c2c(OC)c1O`, the pEC50 (usually −log10 of the EC50, conventionally taken in molar units) is less than 3.60.

Consider `COc1cc(-c2oc3c(OC)c(OC)c(OC)c(O)c3c(=O)c2OC)ccc1O`, for which the pEC50 is less than 4.60.

For the compound `O=c1cc(-c2ccc(O)cc2)oc2cc(O)cc(O)c12` [APIGENIN], the pEC50 was less than 3.60.

Turning to `COc1c(O)cc2oc(-c3ccc(O)c(O)c3)cc(=O)c2c1O` [EUPAFOLIN], the pEC50 was 4.40.

As to `COc1c(O)cc2oc(-c3ccc(O)cc3)cc(=O)c2c1O` [HISPIDULIN], the pEC50 was 4.72.

Consider `O=c1c(O)c(-c2ccc(O)cc2)oc2cc(O)cc(O)c12` [KAEMPFEROL], for which the pEC50 was 4.18.

For `O=c1cc(-c2ccc(O)c(O)c2)oc2cc(O)cc(O)c12` [LUTEOLIN], the pEC50 was less than 3.60.

In the case of `O=c1c(O)c(-c2cc(O)c(O)c(O)c2)oc2cc(O)cc(O)c12` [MYRICETIN], the pEC50 was 4.15.
